We go through eleven molecules from PubChem BioAssay (NCI).

“And” between values parts separate entries of the source, which are not always exact repeats. Equal values may be shown once.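 Tested at 5 concentrations; 48 h exposure; 96-well plates; endpoints linearly interpolated, else capped at highest concentration. GI50 marks 50% less growth. TGI is the concentration that stops growth completely.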

What all share (assay): NCI-60 cell line screen, 48 h
Test [1] deals with 786-0 renal.
The subject of test [2] is HL-60(TB) leukemia.
The test system of test [3] is IGROV1 ovarian.
Test [4] has as its system MOLT-4 leukemia.
Test [5] relates to OVCAR-4 ovarian.
For test [6], the system named is SF-539 CNS.
The subject of test [7] is SNB-75 CNS.
In test [8] the test system is U251 CNS.

For the molecule `O=c1nc2[nH]c3c(-c4n[nH]c(=O)[nH]c4=O)cccc3c2n[nH]1`, the GI50 in test [1], in test [2], in test [3], in test [4], in test [5] and in test [6] was more than 100 µM in each case. In addition, the GI50 in test [7] and in test [8] was more than 100 µM throughout. For the same molecule, the TGI in test [1], in test [2], in test [3], in test [4], in test [5] and in test [6] was more than 100 µM in each case. The TGI in test [7] and in test [8] was more than 100 µM in each case.
On to `O=C(O)Cn1ccc(=O)c2cc([N+](=O)[O-])ccc21`, for which the TGI in test [1], in test [2], in test [3], in test [4], in test [6] and in test [7] was more than 100 µM each time. The TGI in test [8] is more than 100 µM.
`COc1cc2cc3c(c(O)c2c(O)c1-c1c(OC)cc2cc4c(c(O)c2c1O)C(=O)O[C@H](C)C4)C(=O)O[C@H](C)C3`: the GI50 in test [1] was 21.1 µM; in test [2], 95.9 µM; in test [4] it was more than 100 µM; in test [5] it was 22.4 µM; in test [8], 19.6 µM. Besides, the TGI in test [1] was 64.8 µM; in test [2], more than 100 µM; in test [4] it was more than 100 µM; in test [5], more than 100 µM; in test [8], 48.1 µM.
On to `Cc1ccnc(Nc2ccc([N+](=O)[O-])c(NCCN3CCOCC3)n2)c1`, for which the GI50 is 0.00821 µM and 0.0149 µM in test [1]; 0.0144 µM in test [2]; 0.0389 µM and 0.0579 µM in test [3]; 0.0304 µM and 0.0356 µM in test [4]; 0.0151 µM in test [5]; 0.00243 µM in test [7]. Moreover, the GI50 in test [8] is 0.00524 µM. Besides, the TGI in test [1] is 23.7 µM; in test [2], 0.0464 µM; in test [3], 42.4 µM; in test [4], more than 100 µM; in test [7] it was 20.1 µM; in test [8], more than 100 µM.
For the molecule `COc1cc(/C=C\c2cc(OC)c(OC)c(OC)c2)cc(NS(=O)(=O)c2ccc(Cl)cc2)c1OC`, the GI50 in test [1] was 0.666 µM; in test [2] it was 0.249 µM; in test [3], 0.904 µM; in test [4] it was 0.672 µM; in test [5] it was 1.53 µM; in test [6], 0.303 µM. Moreover, the GI50 in test [8] is 0.461 µM. Further, the TGI in test [1] was more than 100 µM; in test [2], 0.694 µM; in test [3], more than 100 µM; in test [4], 31.9 µM; in test [5], more than 100 µM; in test [6], 2.58 µM. In test [8], the TGI amounted to 20.7 µM.
Consider `O=C(OC[C@@H]1CO1)c1cccc2c(=O)c3ccccc3[nH]c12`, for which the GI50 in test [1] is 0.349 µM; in test [3] it was 0.329 µM; in test [4], 0.0531 µM; in test [5], 0.671 µM; in test [6] it was 0.344 µM; in test [7], 0.288 µM. Moreover, the GI50 in test [8] is 0.279 µM. Moreover, the TGI stood at 2.69 µM in test [1]; 1.83 µM in test [3]; 4.72 µM in test [5]; 1.97 µM in test [6]; 1.49 µM in test [7]; 3.69 µM in test [8].
For `C=C1CC/C=C(\C)CC[C@H](C(=C)C)[C@@H](O)/C=C(/CO)CCC1O` (stereo partly specified), the GI50 was more than 100 µM in test [1]; 44.9 µM in test [3]; 24 µM in test [4]; more than 100 µM in test [5]; more than 100 µM in test [6]; more than 100 µM in test [7]. For the same molecule, the GI50 in test [8] was 85.2 µM. In addition, the TGI was more than 100 µM in test [1]; more than 100 µM in test [3]; 53.6 µM in test [4]; more than 100 µM in test [5]; more than 100 µM in test [6]; more than 100 µM in test [7]. The same molecule displayed a TGI in test [8] of more than 100 µM.
For the molecule `N/C(=N\C(N)=N\c1nc2ccccc2s1)c1cnccn1`, the GI50 was 2.97 µM in test [1]; 2.68 µM in test [2]; 3.48 µM in test [4]; 3.38 µM in test [5]; 2.07 µM in test [6]; 2.15 µM in test [7]. In test [8], the GI50 is 2.96 µM. Also, the TGI in test [1] was more than 100 µM; in test [2], 51.5 µM; in test [4] it was more than 100 µM; in test [5] it was more than 100 µM; in test [6] it was 4.12 µM; in test [7] it was 15.3 µM. Further, the TGI in test [8] was 14.9 µM.
Turning to `Clc1ccc2c(NCCCN3CCN(c4nc(N5CCOCC5)nc5ccccc45)CC3)ccnc2c1`, the GI50 in test [1] is 1.59 µM; in test [2], 1.35 µM; in test [4], 1.36 µM; in test [5] it was 1.9 µM; in test [6], 1.68 µM; in test [7] it was 1.85 µM. In addition, the GI50 in test [8] was 2.15 µM. Also, the TGI was found to be 3.03 µM in test [1]; 3.95 µM in test [2]; 3.9 µM in test [4]; 4.64 µM in test [5]; 3.14 µM in test [6]; 3.3 µM in test [7]. Besides, the TGI in test [8] was determined as 5.15 µM.
Regarding `C=CCN=C(N/N=C/c1ccc([N+](=O)[O-])o1)NS(=O)(=O)c1cc(C(=O)Nc2ccccc2)c(Cl)cc1SCC(N)=O`, the GI50 in test [1] was 63.7 µM; in test [3], 32.2 µM; in test [4], 13.4 µM; in test [5], 53 µM; in test [6], 18.8 µM; in test [7] it was more than 100 µM. In test [8], the GI50 was 22.9 µM. Moreover, the TGI in test [1] is more than 100 µM; in test [3] it was 97.3 µM; in test [4] it was 43.9 µM; in test [5] it was more than 100 µM; in test [6] it was 41.5 µM; in test [7], more than 100 µM. The molecule also returned a TGI in test [8] of 95.8 µM.
Regarding `CN(C)c1ccc(C2CC(C)(O)Oc3cc4c(cc32)OCO4)cc1` (stereo unspecified), the TGI in test [1] is more than 100 µM; in test [2] it was more than 100 µM; in test [3], more than 100 µM; in test [4], more than 100 µM; in test [6] it was more than 100 µM; in test [7], 75.1 µM. Also, the TGI in test [8] is more than 100 µM.
